{
  "source": "patent US9353152B2",
  "about": "“Induction of the mitochondrial permeability transition” (NewSouth Innovations Pty Limited, priority 2002, dated 2016)",
  "key": {"BAE cells [1]": {"system": "BAE cells", "test": "Mitochondrial membrane potential (JC-1) and apoptosis (annexin V) by flow cytometry", "assay_type": "cell-based, bovine", "conditions": "10% serum, 48 h", "procedure": "For measurements of superoxide levels with dihydroethidine, mitochondrial membrane potential with JC-1, mitochondrial mass with nonyl acridine orange, and apoptosis with annexin V, proliferating or growth-quiescent BAE cells were treated for 24 or 48 h with GSAO in six-well culture plates, then detached with trypsin/EDTA, washed once, and resuspended at 2×10^6 cells per mL in serum-free medium. Cells were then incubated for 15 min at room temperature with dihydroethidine (5 μM, Molecular Probes) or 30 min at room temperature with JC-1 (0.5 μg·mL^−1, Molecular Probes), annexin V-FITC (50 μl·mL^−1) (Pharmingen, La Jolla, Calif., USA), or acridine orange 10-nonyl bromide (5 μM, Molecular Probes). Cells were then washed once, resuspended in 0.5 mL serum-free medium, transferred to ice, and fluorescence was quantitated immediately by flow cytometry."}, "BAE cells [2]": {"system": "BAE cells", "test": "ATP assay (luciferin/luciferase)", "assay_type": "cell-based, bovine", "conditions": "150 μM GSAO, 24 h", "procedure": "BAE cells in six-well culture plates were arrested for 24 h in 0.5% serum or left in 10% serum, then treated for 24 h with 0, 60 or 150 μM GSAO. The cells were washed once then resuspended in 0.4 mL PBS containing 0.3% bovine serum albumin. A 50 μl sample of cells was mixed with 50 μL water and 100 μL ATP releasing agent (Sigma) and ATP concentration was measured using a luciferin/luciferase ATP assay mix (Sigma). Light units were converted to ATP concentrations using an ATP standard in place of the 50 μL water. Cell number was counted using a Beckman Coulter Counter and mol of ATP was expressed per million cells."}, "[3]": {"system": "A549 (human lung carcinoma)", "test": "Proliferation arrest and loss of viability (cell number and propidium iodide, flow cytometry)", "assay_type": "cell-based", "conditions": "A549, 48 h", "procedure": "(§1) To distinguish between the anti-proliferative and pro-apoptotic effects of GSAO, treated cells were stained with propidium iodide (PI) to detect late-apoptotic or dead cells. The total number of cells and the proportion of cells that were PI-positive following 48 h treatment with GSAO were measured by flow cytometry."}, "[4]": {"system": "BAE (bovine aortic endothelial)", "test": "Proliferation arrest and loss of viability (cell number and propidium iodide, flow cytometry)", "assay_type": "cell-based", "conditions": "48 h", "procedure": "as §1"}, "[5]": {"system": "BxPC-3 (human pancreatic carcinoma)", "test": "Proliferation arrest and loss of viability (cell number and propidium iodide, flow cytometry)", "assay_type": "cell-based", "conditions": "for IC50: BxPC-3, 48 h", "procedure": "as §1"}, "[6]": {"system": "HDMVE (human dermal endothelial)", "test": "Proliferation arrest and loss of viability (cell number and propidium iodide, flow cytometry)", "assay_type": "cell-based", "conditions": "48 h", "procedure": "as §1"}, "[7]": {"system": "HL60 (human erythroid leukaemia)", "test": "Proliferation arrest and loss of viability (cell number and propidium iodide, flow cytometry)", "assay_type": "cell-based", "conditions": "HL60, 48 h", "procedure": "as §1"}, "[8]": {"system": "HT1080 (human fibrosarcoma)", "test": "Proliferation arrest and loss of viability (cell number and propidium iodide, flow cytometry)", "assay_type": "cell-based", "conditions": "HT1080, 48 h", "procedure": "as §1"}, "[9]": {"system": "LLC (murine lung carcinoma)", "test": "Proliferation arrest and loss of viability (cell number and propidium iodide, flow cytometry)", "assay_type": "cell-based", "conditions": "48 h", "procedure": "as §1"}, "[10]": {"system": "bovine vascular smooth muscle cells", "test": "Proliferation arrest", "assay_type": "cell-based", "procedure": "as §1"}, "BxPC-3 tumours": {"system": "BxPC-3 tumours", "test": "Primary tumour growth assay", "assay_type": "in vivo, SCID mice", "conditions": "10 mg/kg/day s.c., SCID mice, BxPC-3", "procedure": "(§2) Female 7 to 9 week old SCID or C57Bl6/J mice were used (Massachusetts General Hospital, Boston, Mass.). Mice were held in groups of 3 to 5 at a 12 hour day and night cycle and were given animal chow and water ad libidum. SCID or C57Bl6/J mice were anaesthetised by inhalation of isoflurane, the dorsal skin shaved and cleaned with ethanol, and a suspension of 2.5×10^6 BxPC-3, HT1080 or LLC cells in 0.2 mL of PBS, or saline for LLC cells, was injected S.C. in the proximal midline. LLC cells were prepared according to O'Reilly et al. (1997). Tumour volume was calculated using the relationship, a·b^2·0.52, where a is the longest and b the shortest diameter."}, "HT1080 tumours": {"system": "HT1080 tumours", "test": "Primary tumour growth assay", "assay_type": "in vivo", "conditions": "10 mg/kg/day s.c., SCID mice", "procedure": "as §2"}, "LLC tumours": {"system": "LLC tumours", "test": "Primary tumour growth assay", "assay_type": "in vivo", "conditions": "10 mg/kg/day s.c., C57Bl6/J mice", "procedure": "as §2"}, "BAE cells [11]": {"system": "BAE cells", "test": "Cell proliferation and viability assay (MTT)", "assay_type": "cell-based, bovine", "conditions": "10% serum, 48 h; read-out: IC50 for proliferation arrest of BAE cells", "procedure": "BAE or human pancreatic carcinoma BxPC-3 cells were seeded at a density of 10^3 cells per well into 96 well plates in DMEM containing 10% foetal bovine serum and allowed to adhere for 24 h. Cells were washed and incubated with DMEM containing 10% foetal bovine serum and GSAO or o-GSAO and cultured for a further 48 h. Some BAE cells were arrested for 24 h in medium containing 0.25% serum and cultured for a further 48 h in medium containing 0.25% or 10% serum, in the presence of GSAO or o-GSAO. Viable attached cells were determined using MTT."}, "[12]": {"test": "Side-effects in Balb-C nude mice bearing BxPC-3 tumours", "assay_type": "in vivo", "conditions": "1 or 10 mg/kg/day s.c.", "procedure": "Female 7 to 9 week old Balb C nude were used (UNSW Biological Resource Centre). Mice were held in groups of 3 to 5 at a 12 h day and night cycle and were given animal chow and water ad libidum. A suspension of 2.5×10^6 BxPC-3 cells in 0.2 mL of PBS was injected subcutaneously in the proximal midline. Tumours were allowed to establish and grow to a size of ˜40 mm^3 after which they were randomised into four groups. Tumour volume was calculated using the relationship, a·b^2·0.52, where a is the longest and b the shortest diameter. Animals were treated with either GSAO or o-GSAO at a dose 1 or 10 mg/kg/day in 0.1 mL of PBS. The compounds were administered subcutaneously at a site distant from the tumour. Tumour volume and animal weight was measured every 2 or 3 days.\nBalb-C nude mice bearing ˜40 mm^3 BxPC-3 tumours were randomised into four groups (n=10 or 11 per group) and treated subcutaneously with either GSAO (part A) or o-GSAO (part B) at 1 or 10 mg/kg/day in 0.1 mL of PBS. Parts C and D are the mice weights for the respective groups, where the arrow indicates start of treatment. The data points are the mean±SE of the tumour volumes or mice weights. Treatment with 10 mg/kg o-GSAO (part B) was stopped at day 14 due to necrosis and inflammation at sites of injection in 7 out of 11 mice (3/11 with severe ulcers, 4/11 with medium ulcers)."}, "[13]": {"conditions": "read-out: Loss of Viability IC50"}, "[14]": {"conditions": "read-out: Proliferation Arrest IC50"}},
  "note": "Values joined by “and” are separate entries in the source; they are usually repeats but may differ in a detail not shown here. Identical values can stand only once. Like-named read-outs stand apart in the source and are kept apart here.",
  "data": [
    {"molecule": "N[C@@H](CCC(=O)N[C@@H](CSCC(=O)Nc1ccc([As]=O)cc1)C(=O)NCC(=O)O)C(=O)O", "note": "(stereo partly shown) [GSAO, 4-(N—(S-glutathionylacetyl)amino)-phenylarsenoxide]", "values": [
      {"measurement": "mitochondrial depolarisation (JC-1) and apoptosis (annexin V binding)", "setting": "BAE cells [1]", "value": "triggered mitochondrial depolarisation and induced apoptosis"},
      {"measurement": "cellular ATP levels in proliferating BAE cells", "setting": "BAE cells [2]", "value": "reduced ATP levels in proliferating cells to that of growth-quiescent cells"},
      {"measurement": "IC50", "setting": "[3]; [13]", "value": 150, "unit": "µM"},
      {"measurement": "IC50", "setting": "[3]; [14]", "value": 80, "unit": "µM"},
      {"measurement": "IC50", "setting": "[4]; [13]", "value": "~75 µM and 75 µM"},
      {"measurement": "IC50", "setting": "[4]; [14]", "value": "~10 µM and 10 µM"},
      {"measurement": "IC50", "setting": "[5]; [13]", "value": "> 320", "unit": "µM"},
      {"measurement": "IC50", "setting": "[5]; [14]", "value": "> 320", "unit": "µM"},
      {"measurement": "concentration without effect on BxPC-3 proliferation relative to endothelial proliferation arrest", "setting": "[5]; Table 1", "value": "> 30", "unit": "fold"},
      {"measurement": "IC50", "setting": "[6]; [13]", "value": "~35 µM and 35 µM"},
      {"measurement": "IC50", "setting": "[6]; [14]", "value": "~15 µM and 15 µM"},
      {"measurement": "IC50", "setting": "[7]; [13]", "value": 140, "unit": "µM"},
      {"measurement": "IC50", "setting": "[7]; [14]", "value": 50, "unit": "µM"},
      {"measurement": "IC50", "setting": "[8]; [13]", "value": 130, "unit": "µM"},
      {"measurement": "IC50", "setting": "[8]; [14]", "value": 95, "unit": "µM"},
      {"measurement": "IC50", "setting": "[9]", "value": 140, "unit": "µM"},
      {"measurement": "IC50", "setting": "[10]", "value": "~30", "unit": "µM"},
      {"measurement": "inhibition of the rate of tumour growth", "setting": "BxPC-3 tumours", "value": "> 90", "unit": "%"},
      {"measurement": "inhibition of the rate of tumour growth", "setting": "HT1080 tumours", "value": "~70", "unit": "%"},
      {"measurement": "inhibition of the rate of tumour growth", "setting": "LLC tumours", "value": "~50", "unit": "%"},
      {"measurement": "IC50", "setting": "BAE cells [11]", "value": "8.3 ± 2.1", "unit": "µM"},
      {"measurement": "side-effects (behavioural, skin necrosis, weight loss) with GSAO administration", "setting": "[12]", "value": "not observed"}
    ]}
  ]
}
